The nature of one series: Mouse 5-day tolerability. It counts as in vivo. The note with it: healthy mice. The method, then:
Compounds were administered to groups (n = 3) of female BALB/c mice via oral gavage in a 5-day exploratory repeat-dose study at doses of 25, 50 and 100 mg/kg/day, employing a solution/suspension vehicle comprising 10% ethanol, 40% PEG400 and 0.4% Tween80 in saline buffer (pH adjusted to 9). Repeat-dose toxicity was evaluated based on mortality, clinical observations, body weight and macroscopic organ pathologies.

Series [1] has as its system L. infantum (MHOM/BR/2005/NLC) strain expressing luciferase. Format: in vivo, Leishmania infantum. The note with it: 25 mg/kg/day oral. As to the method:
Groups of female BALB/c mice (n = 5) were infected with 10^8 stationary phase promastigotes of L. infantum chagasi-LUC in a final volume of 100 μL by the intraperitoneal route. At day 14 post-infection, groups were orally treated for 5 days with either drug vehicle only (10% ethanol, 40% PEG400 and 0.4% Tween80 in saline buffer—pH adjusted to 9), miltefosine (40 mg/kg QD) or with compounds 29 and 39 (25 mg/kg QD). Light emission in the ventral abdominal cavity of infected animals was recorded by bioimaging (IVIS Spectrum, Caliper Life Sciences) on 14, 19- and 24-days post-infection. Before imaging, mice received 75 mg/kg VivoGlo™ Luciferin (Promega Corporation) (i.p.) and were anesthetized in a 2% isoflurane atmosphere (Cristália). Animals were then transferred to the imaging chamber and kept in a 2% isoflurane atmosphere. Emitted photons were collected using the high resolution (medium binning) mode. Total photon emission from a defined region of interest (ROI) corresponding to the whole abdominal area was registered. The same ROI was applied to all animals in any given group. Images were acquired 15 min after luciferin injection. Total photon emission from each mouse was quantified with Living Image software version 4.3.1 (Caliper Life Sciences), and results were expressed as the number of photons/s/ROI subtracted from the corresponding ROI in uninfected animals. The detected signal was presented as a pseudocolor image representing light intensity (red = most intense and blue = least intense) and superimposed on the gray scale reference image.

Series [2] deals with L. braziliensis MHOM/BR/94/H3227. As to the kind of experiment: VL/CL panel, intracellular amastigotes. The note with it: Leishmania braziliensis; average; read-out: IC-50 L. braziliensis MHOM/BR/94/H3227. It counts as cell-based. The method, then: (§1) For the antileishmania in vitro assays, 3×10^4 PMM/well were seeded in 96-well plates. After 24h, 5×10^5 amastigotes/well were added and incubated for 2h at 37°C. Next, the compounds in 4-fold serial dilutions were added and the plates were further incubated for 5 days (37°C, 5% CO2). Parasite burdens were assessed using an inverted microscope after Giemsa staining. The results were expressed as percent reduction in parasite burdens compared to negative control wells (100% growth) and IC50 values were determined. Values represent the geometric mean of at least two independent experiments. Miltefosine was used as the positive control in all plates.

Series [3] has as its system panel of VL and CL strains (intracellular amastigotes). As to the kind of experiment: Panel of VL and CL strains. It counts as cell-based, Leishmania spp. The note with it: Leishmania, L. major JISH118 and L. braziliensis H3227 excepted, read-out: IC50 values across panel of VL and CL strains. As to the method:
The only two clear exceptions were L. major (MHOM/SA/85/JISH118) and L. braziliensis (MHOM/BR/94/H3227), where a potency drop was evident (see S1 Data for the complete dataset).
as §1

A short description of series [4]: Mouse single-dose pharmacokinetics. It counts as in vivo. The note with it: female, BALB/c, plasma, single oral dose 10 mg/kg.

For orientation: AUC(0-t) means exposure summed from dosing to a finite time, without extrapolation to infinity. The low end stands for less exposure, the high end for more exposure. In general, Cmax refers to the peak of the concentration-time curve. Usually bioavailability stands for dose-corrected exposure relative to a reference, in per cent. A low value points to poor availability. What is called half-life is the time in which the quantity being followed falls by half. Consider `Cn1nccc1C(=O)Nc1nc2ccc(C#N)cc2n1CC(C)(C)C` [Compound 29, O=C(Nc1n(CC(C)(C)C)c(c2n1)cc(C#N)cc2)c3n(C)ncc3], for which the 5-day tolerability result in the series “Mouse 5-day tolerability” (oral 25 mg/kg/day) is “well tolerated”. Further, in the series “Mouse 5-day tolerability” (oral 50 mg/kg/day), the 5-day tolerability entry is listed as “clinical signs from day 3 of treatment”. Further, the 5-day tolerability result in the series “Mouse 5-day tolerability” (oral top dose (100 mg/kg/day)) is “body weight reduction and severe toxic signs, including mortality”. Besides, in series [1], the “toxicity in infected mice” value is “one animal was euthanized due to severe clinical signs of distress”. The “parasite load (bioluminescence)” value in series [1] (5 days, end of treatment or washout) was “no decrease in parasite load”. Moreover, the IC50 in series [2] was found to be 24.8 µM. Further, in series [3], the IC50 fell in the range of 0.11 to 5.9 µM. In series [4], the area under the curve AUC(0-t) amounted to 8160 ng·h/mL, the highest concentration (Cmax) stood at 1000 ng/mL, the bioavailability was determined as 72% and the half-life is 7.9 h.
As to `Cn1nc(C(F)(F)F)cc1C(=O)Nc1nc2ccc(C#N)cc2n1CC(F)(F)F` [Compound 39, O=C(c1cc(C(F)(F)F)nn1C)Nc2nc(ccc(C#N)c3)c3n2CC(F)(F)F], the 5-day tolerability entry in the series “Mouse 5-day tolerability” (oral 25 mg/kg/day) is “well tolerated”; in the series “Mouse 5-day tolerability” (oral 50 mg/kg/day) it was “clinical signs from day 3 of treatment”; in “Mouse 5-day tolerability” (oral top dose (100 mg/kg/day)) it was “body weight reduction and severe toxic signs, including mortality”. The “toxicity in infected mice” value in series [1] was “severe toxic effects”. In addition, the IC50 in series [3] fell in the range of 0.11 to 5.9 µM.

These data come from publication PMC7932521, “2-aminobenzimidazoles for leishmaniasis: From initial hit discovery to in vivo profiling” (PLoS Neglected Tropical Diseases, 2021).
